From paper PMC8667925, “New 1,2,4-oxadiazole derivatives with positive mGlu4 receptor modulation activity and antipsychotic-like properties” (Journal of Enzyme Inhibition and Medicinal Chemistry, 2021) come the findings set out here.

The subject of assay [1] is Albino Swiss mice. Description: modified stress-induced hyperthermia (SIH) in singly housed mice. In kind it is in vivo. The procedure: (§1) The compounds were dissolved in a small amount of 100% EtOH and then adjusted with 20% cyclodextrin, and the pH was adjusted to 6.0. The investigated compounds were administered intraperitoneally (i.p.) 60 min before the behavioural test. Control drugs i.e. diazepam, clozapine and imipramine (Sigma–Aldrich, St. Louis, USA), were administered i.p. 60 min before the behavioural test. Cyclodextrin (20%) was used as a vehicle. All solutions were prepared immediately prior to the experiments and were administered at a constant volume of 10 ml/kg.
The procedure for modified stress-induced hyperthermia was adapted from Van der Heyden[93] and based on the procedure introduced by Borsini[94]. Each experimental group consisted of eight to ten animals. The animals were housed individually in a 26 × 21 × 14 cm Macolon cage 24 h before testing. For this assay, the body temperature was measured for each mouse at t = 0 min (T1) and t = +15 min (T2). Albino Swiss mice were placed into a new cage immediately following T1, with the difference in temperature (T2−T1) used as the measure of stress-induced hyperthermia. […] A comparison between T1 in vehicle-treated mice and those administered the test compound was used to determine whether the agent affects body temperature alone. Diazepam (5 mg/kg) was used as the positive control. The rectal temperature was measured to the nearest 0.1 °C with a Physitemp Theralert thermometer, TH-5, Clifton NJ, USA, with the temperature sensor for mice, Type T, Copper-Constantan Thermocouple, Braintree Scientific Inc. The lubricated thermistor probe (2 mm diameter) was inserted 20 mm into the rectum. The mouse was held at the base of the tail during this determination, and the thermistor probe was left in place until a constant reading was obtained for 15 s. The effects of the investigated compounds on the SIH response were investigated after administration of the compounds at doses of 5, 10 and 20 mg/kg.

Another assay deals with T1, mGlu7 receptor (Homo sapiens, UniProt Q14831).
T1 construct: mGlu4 receptor NM_000841, mGlu7 receptor NM_000844.2, and mGlu8 receptor NM_000845; expressed in transfected cells; host or cells: T-REx 293
The assay can be described thus: cAMP accumulation assay in cells expressing mGlu7 receptor (agonist, PAM, NAM modes). In kind it is cell-based. Conditions: 10 µM, agonist mode. How it is done: (§2) The compounds were tested in the agonist, PAM (in the presence of EC20 concentration of L-Glu) or NAM (with EC80 of L-Glu) modes of forskolin-induced cAMP using T-REx 293 cells expressing the protein of a given receptor.
(§3) Figure 4. The activity of compounds 34, 37, 49, 52, 60, 62 and reference drugs MMPIP (a selective NAM of mGlu7 receptor) and AZ12216052 (a PAM of mGlu8 receptor) tested at a concentration of 10 μM in the cAMP accumulation assay in cells expressing mGlu7 and mGlu8 receptors. The percent activity refers to two extreme FRET signals: 0% corresponds to forskolin treatment alone and 100% to maximal FRET signal for the control cells (without any treatment). A/D – agonistic activity; B/E – PAM activity measured in the presence of L-Glu at the EC20 concentration (0.1 mM for mGlu7 receptor, and 1 μM for mGlu8 receptor); C/F – NAM activity measured in the presence of L-Glu at the EC80 concentration (1 mM for mGlu7 receptor, 10 μM for Glu8 receptor).
(§4) Determination of the intracellular cAMP through a homogeneous time-resolved fluorescence (HTRF) cAMP dynamic 2 kit from Cisbio (Codolet, France) was described previously by Chruścicka et al.[91]. Briefly, cells were grown in DMEM supplemented with 10% foetal bovine serum (FBS) (tetracycline free). Forty-eight hours before the experiments, mGlu receptor expression was induced by the addition of 0.75 µg/mL tetracycline. Twenty hours before the experiment, FBS and L-Glu were removed from the medium. Thereafter, the cells were scraped and centrifuged. A cell pellet was suspended in Hanks-HEPES (130 mM NaCl, 5.4 mM KCl, 1.8 mM CaCl2, 0.8 mM MgSO4, 0.9 mM NaH2PO4, 20 mM HEPES, and 3.25 mM glucose; pH 7.4). Then, the cell suspension was incubated in the presence of 10 µM forskolin (or 3 µM forskolin for mGlu7 receptor), the agonist L-glutamate and a compound for 5 min. Next, 10 µl of the cell suspension was mixed with 5 µl of cAMP-d2 conjugate and 5 µL of anti-cAMP cryptate conjugate. After 1 h of incubation at rt, the fluorescence at 620 nm and 665 nm was read (Tecan Infinite M1000). The results were calculated as the 665 nm/620 nm ratio multiplied by 10^4. Each sample was prepared in triplicate.
In general terms: Changes in cAMP serve as a functional read-out for many G protein-coupled receptors.

A further assay deals with T2, mGlu4 receptor (Homo sapiens, UniProt Q14833).
T2 construct: mGlu4 receptor NM_000841, mGlu7 receptor NM_000844.2, and mGlu8 receptor NM_000845; expressed in transfected cells; host or cells: T-REx 293
The assay can be described thus: forskolin-stimulated cAMP assay, PAM mode (EC20 of L-Glu), T-REx 293 cells. In kind it is cell-based. Conditions: SEM where given; for EC50 / Emax: PAM mode; for EC50: EC20 (3 µM) L-Glu, T-REx 293 cells expressing human mGlu4 receptor; for Emax: T-REx-293, human mGlu4, read-out: GluMax; for Fold shift of L-Glu dose-response curve: in the presence of 10 µM of compound. How it is done:
The activity of the compounds was assessed in vitro in a forskolin-stimulated cAMP assay in T-REx 293 cells expressing human mGlu4 receptors in the presence of an EC20 concentration of L-Glu; a PAM was identified if it potentiated cAMP inhibition by the Gi/o-dependent pathway of mGlu4 receptor activation; i.e. if it was able to produce a leftward shift in the potency of the endogenous agonist.
as §4
Statistical calculations were performed using GraphPad Prism 5.04 software (GraphPad Software, La Jolla, CA, USA). The curves were fitted to a 3-parametric logistic equation, allowing for the determination of EC50 values. Each data point was analysed in triplicate.

In assay [2] the test system is Albino Swiss mice. Description: DOI-induced head twitch test (HTR). In kind it is in vivo. Conditions: DOI 2.5 mg/kg i.p. The procedure: as §1
The experiments were performed according to the procedure described in our previous studies[75]^,[80]. Briefly, to habituate mice to the experimental environment, each animal was transferred to a 12 cm (diameter) × 20 cm (height) glass cage lined with sawdust 30 min before treatment. Test compounds were administered intraperitoneally (i.p.) at doses of 2.5, 5, and 10 mg/kg body weight 60 min before the test was performed. The head twitch response (HTR) in mice was induced by DOI (2.5 mg/kg, i.p.). Immediately after treatment, the number of head twitches was counted during a 20 min session. Haloperidol and clozapine were used as the reference compounds at active doses of 0.2 and 5 mg/kg, respectively.

The next assay has as its target T3, mGlu8 receptor (Homo sapiens, UniProt O00222).
T3 construct: mGlu4 receptor NM_000841, mGlu7 receptor NM_000844.2, and mGlu8 receptor NM_000845; expressed in transfected cells; host or cells: T-REx 293
The assay can be described thus: cAMP accumulation assay in cells expressing mGlu8 receptor (agonist, PAM, NAM modes). In kind it is cell-based. Conditions: 10 µM, agonist mode. How it is done: as §2, §3, §4

Where [3] appears, read: 5 mg/kg i.p., 60 min before test.
[4] abbreviates: 10 mg/kg i.p., 60 min before test.
Where [5] appears, read: 20 mg/kg i.p., 60 min before test.
[6] abbreviates: over the doses 5, 10 and 20 mg/kg i.p.
Setting [7] is: 2.5 mg/kg i.p., 60 min before test.
Setting [8] is: over the doses 2.5, 5 and 10 mg/kg i.p.

Entries after “also recorded” stand apart in the source; their conditions may differ. Marks after values point to notes of the source that are not given here.

T2 sequence (Q14833 33-912): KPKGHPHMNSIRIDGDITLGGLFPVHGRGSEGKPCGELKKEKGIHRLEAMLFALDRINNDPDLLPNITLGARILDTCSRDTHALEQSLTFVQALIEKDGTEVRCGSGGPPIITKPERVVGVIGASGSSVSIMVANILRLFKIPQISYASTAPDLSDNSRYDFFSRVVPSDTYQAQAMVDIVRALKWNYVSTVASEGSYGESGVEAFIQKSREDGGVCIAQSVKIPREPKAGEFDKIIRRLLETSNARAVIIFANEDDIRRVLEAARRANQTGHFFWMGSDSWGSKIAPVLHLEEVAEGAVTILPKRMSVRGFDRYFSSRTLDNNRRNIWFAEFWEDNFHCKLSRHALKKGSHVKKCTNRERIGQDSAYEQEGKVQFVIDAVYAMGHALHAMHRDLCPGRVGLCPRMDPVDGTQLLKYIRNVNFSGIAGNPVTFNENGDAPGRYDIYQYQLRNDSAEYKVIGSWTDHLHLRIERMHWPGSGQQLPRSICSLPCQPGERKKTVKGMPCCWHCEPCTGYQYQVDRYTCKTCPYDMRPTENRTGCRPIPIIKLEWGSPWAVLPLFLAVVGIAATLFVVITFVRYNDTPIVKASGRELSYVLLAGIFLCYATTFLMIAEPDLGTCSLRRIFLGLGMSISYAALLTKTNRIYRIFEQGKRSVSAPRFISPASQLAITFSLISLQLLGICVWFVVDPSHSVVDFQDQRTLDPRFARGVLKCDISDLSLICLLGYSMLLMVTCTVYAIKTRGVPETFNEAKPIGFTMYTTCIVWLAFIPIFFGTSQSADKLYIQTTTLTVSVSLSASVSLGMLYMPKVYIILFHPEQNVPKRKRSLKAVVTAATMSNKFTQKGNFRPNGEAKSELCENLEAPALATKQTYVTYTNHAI
T3 sequence (O00222 34-908): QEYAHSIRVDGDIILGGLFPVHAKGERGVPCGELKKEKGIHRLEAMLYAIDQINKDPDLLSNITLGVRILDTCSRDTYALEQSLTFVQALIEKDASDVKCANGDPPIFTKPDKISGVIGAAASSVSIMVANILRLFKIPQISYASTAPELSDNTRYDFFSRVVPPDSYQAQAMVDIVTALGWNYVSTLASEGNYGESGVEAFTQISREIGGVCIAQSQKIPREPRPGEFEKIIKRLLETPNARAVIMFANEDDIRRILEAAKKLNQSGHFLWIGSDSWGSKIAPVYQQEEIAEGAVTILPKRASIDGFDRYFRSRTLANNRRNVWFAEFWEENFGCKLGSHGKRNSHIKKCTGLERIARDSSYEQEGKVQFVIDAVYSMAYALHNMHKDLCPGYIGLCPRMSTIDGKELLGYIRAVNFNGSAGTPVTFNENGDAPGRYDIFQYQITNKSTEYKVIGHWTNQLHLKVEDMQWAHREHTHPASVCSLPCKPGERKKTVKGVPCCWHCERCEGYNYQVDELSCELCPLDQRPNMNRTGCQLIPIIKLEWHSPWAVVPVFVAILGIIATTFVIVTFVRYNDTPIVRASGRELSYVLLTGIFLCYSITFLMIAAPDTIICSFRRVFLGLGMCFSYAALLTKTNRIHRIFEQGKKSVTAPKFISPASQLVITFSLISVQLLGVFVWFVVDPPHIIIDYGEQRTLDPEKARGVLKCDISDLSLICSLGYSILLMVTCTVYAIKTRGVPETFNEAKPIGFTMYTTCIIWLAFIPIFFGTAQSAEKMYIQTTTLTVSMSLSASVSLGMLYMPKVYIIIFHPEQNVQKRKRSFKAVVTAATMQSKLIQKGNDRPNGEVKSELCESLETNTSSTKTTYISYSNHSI
T1 sequence (Q14831 35-915): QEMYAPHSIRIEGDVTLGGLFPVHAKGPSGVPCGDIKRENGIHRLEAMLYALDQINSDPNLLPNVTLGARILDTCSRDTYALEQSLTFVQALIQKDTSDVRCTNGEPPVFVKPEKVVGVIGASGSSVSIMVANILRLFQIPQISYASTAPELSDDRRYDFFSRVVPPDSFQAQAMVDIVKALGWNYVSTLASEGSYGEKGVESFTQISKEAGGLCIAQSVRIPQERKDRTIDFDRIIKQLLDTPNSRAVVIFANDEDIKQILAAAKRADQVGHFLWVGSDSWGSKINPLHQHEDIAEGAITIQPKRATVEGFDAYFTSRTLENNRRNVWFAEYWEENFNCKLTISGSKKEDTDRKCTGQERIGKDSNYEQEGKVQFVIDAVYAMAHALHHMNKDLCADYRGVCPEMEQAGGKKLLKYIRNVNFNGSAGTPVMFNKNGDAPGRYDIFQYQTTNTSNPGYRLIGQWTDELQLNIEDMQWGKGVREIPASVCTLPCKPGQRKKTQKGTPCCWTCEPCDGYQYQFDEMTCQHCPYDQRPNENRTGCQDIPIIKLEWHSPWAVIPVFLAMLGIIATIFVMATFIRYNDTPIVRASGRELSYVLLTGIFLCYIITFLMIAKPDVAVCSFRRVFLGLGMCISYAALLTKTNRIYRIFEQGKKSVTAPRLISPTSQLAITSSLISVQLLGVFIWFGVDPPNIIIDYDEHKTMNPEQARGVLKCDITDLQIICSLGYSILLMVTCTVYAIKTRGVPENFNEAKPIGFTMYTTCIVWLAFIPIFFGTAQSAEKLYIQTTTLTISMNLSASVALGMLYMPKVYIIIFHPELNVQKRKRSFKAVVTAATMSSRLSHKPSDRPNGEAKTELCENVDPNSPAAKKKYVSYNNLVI

The term EC50 denotes the concentration that produces a half-maximal response. Take `COc1cc(NC(=O)c2ccccn2)ccc1-c1noc(-c2ccccc2Cl)n1` [Compound 34]: the “effect on SIH response” value in the assay on Albino Swiss mice [1] (setting [3]) was “not effective”; with Albino Swiss mice [1] (setting [4]), “effective; also recorded: statistically significant reduction in SIH”; in the assay with Albino Swiss mice [1] (setting [5]), “effective; also recorded: statistically significant reduction in SIH”; in the assay with Albino Swiss mice [1] (setting [6]), “significant anxiolytic- and antipsychotic-like properties”. Also, the “agonistic activity at mGlu7 receptor” value at mGlu7 receptor is given as “direct agonistic activity”. Besides, the concentration giving a half-maximal response (EC50) on mGlu4 receptor is 656 nM. Also, the Emax at mGlu4 receptor was 114%. The “Fold shift of L-Glu dose-response curve” value on mGlu4 receptor was 13.4 (2.00)^d. The “effect on DOI-induced HTR” value is “statistically significant effect; also recorded: significant reductions in the HTR score” with Albino Swiss mice [2] (setting [7]); “statistically significant effect; also recorded: significant reductions in the HTR score” in the assay with Albino Swiss mice [2] (setting [4]); “significant anxiolytic- and antipsychotic-like properties” with Albino Swiss mice [2] (setting [8]). Besides, the “agonistic activity at mGlu8 receptor” value at mGlu8 receptor is listed as “direct agonistic activity”.

For the compound `COc1cc(NC(=O)c2ccccn2)ccc1-c1noc(-c2ccccc2F)n1` [Compound 37], the “effect on SIH response” value with Albino Swiss mice [1] (setting [4]) is “effective; also recorded: weak activity”. Moreover, the “effect on SIH response” value with Albino Swiss mice [1] (setting [6]) is “significant anxiolytic- and antipsychotic-like properties”. Besides, the “agonistic activity at mGlu7 receptor” value at mGlu7 receptor is on record as “direct agonistic activity”. In addition, on mGlu4 receptor, the EC50 amounted to 393 nM, the Emax is 116% and the “Fold shift of L-Glu dose-response curve” value is 3.68 (0.19)^d. Besides, the “effect on DOI-induced HTR” value in the assay with Albino Swiss mice [2] (setting [8]) is “significant anxiolytic- and antipsychotic-like properties; also recorded: reversed the DOI-induced effect at all investigated doses; also recorded: dose-dependent reverse effects”. The “agonistic activity at mGlu8 receptor” value on mGlu8 receptor is “direct agonistic activity”.

`O=C(Nc1ccc(-c2noc(-c3ccccc3Cl)n2)c(Cl)c1)c1ccccn1` [Compound 52, N-(3-chloro-4-(5-(2-chlorophenyl)-1,2,4-oxadiazol-3-yl)phenyl)picolinamide]: the “effect on SIH response” value in the assay on Albino Swiss mice [1] (setting [6]) was “significant anxiolytic- and antipsychotic-like properties; also recorded: significantly reduced SIH responses at all three doses; also recorded: at all doses significantly reduced the SIH response”. Further, the “agonistic activity at mGlu7 receptor” value at mGlu7 receptor is reported as “direct agonistic activity”. At mGlu4 receptor, the EC50 was 282 nM, the Emax is 123% and the “Fold shift of L-Glu dose-response curve” value is listed as 8.03 (0.76)^d. In the assay on Albino Swiss mice [2] (setting [8]), the “effect on DOI-induced HTR” value was “significant anxiolytic- and antipsychotic-like properties; also recorded: at all doses significantly reduced; also recorded: Clear dose-response effects”. In addition, the “agonistic activity at mGlu8 receptor” value on mGlu8 receptor is listed as “direct agonistic activity”.

Take `O=C(Nc1ccc(-c2noc(-c3ccccc3Cl)n2)c(C(F)(F)F)c1)c1ccccn1` [Compound 60]: the “effect on SIH response” value in the assay with Albino Swiss mice [1] (setting [3]) was “reduced the temperature increase caused by stress”; with Albino Swiss mice [1] (setting [5]), “reduced the temperature increase caused by stress”; in the assay on Albino Swiss mice [1] (setting [6]) it was “significant anxiolytic- and antipsychotic-like properties”. Besides, the “agonistic activity at mGlu7 receptor” value on mGlu7 receptor is given as “direct agonistic activity”. The EC50 at mGlu4 receptor was found to be 390 nM. Further, the Emax at mGlu4 receptor turned out to be 120%. Moreover, the “Fold shift of L-Glu dose-response curve” value on mGlu4 receptor is 2.94 (0.1)^d. Moreover, the “effect on DOI-induced HTR” value is “significant reductions in the HTR score” in the assay on Albino Swiss mice [2] (setting [7]); “not statistically significant” in the assay on Albino Swiss mice [2] (setting [3]); “significant reductions in the HTR score” in the assay on Albino Swiss mice [2] (setting [4]); “significant anxiolytic- and antipsychotic-like properties” in the assay on Albino Swiss mice [2] (setting [8]). Besides, at mGlu8 receptor, the “agonistic activity at mGlu8 receptor” value is “direct agonistic activity”.
